The text below walks through data of patent publication US10072125B2, “Thiourea-containing dendrimer and thiourea-containing hyperbranched polymer as well as preparation methods thereof and applications thereof” (priority 2014, dated 2018).

Common to all, as to test: Antibacterial performance test, MIC by broth dilution
Common to all, as to assay type: cell-based
For orientation: In broth dilution the organism is exposed to a series of concentrations in liquid medium.

Experiment [1] deals with Staphylococcus epidermidis. To be noted: 24 h at 37° C., 5×10^5 CFU/mL, read-out: MIC S. epidermidis. As for the experimental part:
(§1) To evaluate the antimicrobial activity of each generation of polythiourea dendrimer as described in Example 3, the MICs (minimal inhibitory concentrations) of these dendrimers against different bacteria strains, including Staphylococcus aureus, Enterococcus faecalis, Escherichia coli, Staphylococcus epidermidis, Enterobacter cloacae and Proteus valgaris were determined.
(§2) The strains stored at −20° C. were inoculated on MH agar plates and incubated overnight at 37° C. The monoclonal colonies were cultured in 3 mL nutrient broth at 37° C. to reach the logarithmic growth period. Then the bacteria were diluted with the MH broth to 0.5 millet turbidity standard and further diluted to 1:100 with MH broth as a stock. The diluted bacteria should be inoculated within 15 min. The polythiourea dendrimers were diluted with sterile water into 200 mg/mL, filtered and sterilized. Gentamicin and amikacin were used as positive controls for Gram-negative and Gram-positive bacteria, respectively. Dispense 100 μL of M-H broth into all wells of 96-well plate, and then pipette 100 μL of M-G1-PEG, M-G2-PEG, M-G3-PEG, M-G4-PEG, antibiotics and MH broth in the first column in the order of labeling. After mixing well with the gun, transfer 100 μL from each well in the first column to the corresponding well in the second column. Repeat the procedure to column 10 and discard […], from column 10. Then 100 μL of bacteria was added to each well. The final bacterial solution concentration per well was 5×10^5 CFU/mL. On the outer periphery of the 96-well plate, 200 μL of the drug-free suspension was added as a sterile control. At the same time subculture the suspension in the agar plate, for assessing the purity of bacteria. The inoculated 96-well plates were shaken on a micro-shaker for 1 min, mixed thoroughly and placed in a wet box. After incubated for 24 h at 37° C., the minimum drug concentration of the clear well was observed by the naked eye as the MIC of the drug. At the same time, it was examined whether the growth of the control well was good and the sterile control well was clear. The plate culture of the suspension was examined to determine whether it was contaminated and whether the MIC value of the control strain was in the control range. This assay was repeated three times.

The subject of experiment [2] is Enterococcus faecalis. To be noted: 24 h at 37° C., 5×10^5 CFU/mL, read-out: MIC E. faecalis. As to the method: as §1, §2
The test system of experiment [3] is Staphylococcus aureus. To be noted: 24 h at 37° C., 5×10^5 CFU/mL, read-out: MIC S. aureus. As to the method:
as §1, §2

The test system of experiment [4] is Proteus valgaris. To be noted: 24 h at 37° C., 5×10^5 CFU/mL. As to the method: as §1, §2
In experiment [5] the test system is Escherichia coli. To be noted: 24 h at 37° C., 5×10^5 CFU/mL. As for the experimental part:
as §1, §2

The test system of experiment [6] is Enterobacter cloacae. To be noted: 24 h at 37° C., 5×10^5 CFU/mL. As for the experimental part: as §1, §2

A word on the MIC: it is the least concentration at which growth counts as inhibited.

Converted amounts (≈) assume the structure as drawn. Marks after values point to notes of the source that are not given here.

Take `NCC[C@H](O)C(=O)N[C@@H]1C[C@H](N)[C@@H](O[C@H]2O[C@H](CN)[C@@H](O)[C@H](O)[C@H]2O)[C@H](O)[C@H]1O[C@H]1O[C@H](CO)[C@@H](O)[C@H](N)[C@H]1O` [Amikacin]: the MIC in experiment [1] was found to be 0.5 µg/mL (≈ 0.854 µM); in experiment [2] it was 4 µg/mL (≈ 6.83 µM); in experiment [3] it was 2 µg/mL (≈ 3.42 µM).
Take Gentamicin: the “MIC P. valgaris” value in experiment [4] is on record as 2** μg/mL. In experiment [5], the “MIC E. coli” value is 1** μg/mL. In addition, the “MIC E. cloacae” value in experiment [6] is on record as 2** μg/mL.
